Reference: ChEMBL document CHEMBL1201862, “PubChem BioAssay data set” (2004)
Active and inactive are the calls of the source.

Legend:
INS1 = assay: INS-1E survival protection against cytokine death – cell-based, luminescence, retest, dose response (AID 449756); format: functional; conditions: Rattus norvegicus, INS1;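 note: cell death triggered by IL-1 beta plus TNF-alpha plus IFN-gamma mixture; protective hits raise ATP signal compared with cytokine alone wells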
Protein Wnt-3a = Protein Wnt-3a (Mus musculus, UniProt P27467); assay: antagonism of Wnt3a pathway luciferase reporter – Wnt-LIGHT cells, luminescence, selectivity assay for Gli-SUFU antagonist project, dose response (AID 651570); format: functional; conditions: read-out: IC50_Mean;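 note: Wnt-LIGHT reporter cells stimulated with conditioned medium from Wnt3a-producing cells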
Sequence of Protein Wnt-3a (P27467 whole entry): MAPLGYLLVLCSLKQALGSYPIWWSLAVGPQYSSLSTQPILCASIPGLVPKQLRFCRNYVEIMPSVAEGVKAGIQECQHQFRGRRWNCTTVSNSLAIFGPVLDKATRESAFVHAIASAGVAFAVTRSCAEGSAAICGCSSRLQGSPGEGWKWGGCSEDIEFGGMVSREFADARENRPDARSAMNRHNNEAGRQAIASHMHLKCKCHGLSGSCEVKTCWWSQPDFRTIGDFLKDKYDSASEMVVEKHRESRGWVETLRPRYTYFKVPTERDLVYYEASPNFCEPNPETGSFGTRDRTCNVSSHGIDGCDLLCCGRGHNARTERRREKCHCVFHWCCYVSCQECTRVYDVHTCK

cells [1] = format: functional, cell-based
cells [2] = format: functional, cell-based; remark: listed apart in the source
[3] = molecular target: T1, Trace amine-associated receptor 1 (Homo sapiens, UniProt Q96RJ0); assay: Fluorescence-based cell-based high throughput dose response assay to identify agonists of the human trace amine associated receptor 1 (TAAR1).; format: functional
T1 sequence (Q96RJ0 whole entry): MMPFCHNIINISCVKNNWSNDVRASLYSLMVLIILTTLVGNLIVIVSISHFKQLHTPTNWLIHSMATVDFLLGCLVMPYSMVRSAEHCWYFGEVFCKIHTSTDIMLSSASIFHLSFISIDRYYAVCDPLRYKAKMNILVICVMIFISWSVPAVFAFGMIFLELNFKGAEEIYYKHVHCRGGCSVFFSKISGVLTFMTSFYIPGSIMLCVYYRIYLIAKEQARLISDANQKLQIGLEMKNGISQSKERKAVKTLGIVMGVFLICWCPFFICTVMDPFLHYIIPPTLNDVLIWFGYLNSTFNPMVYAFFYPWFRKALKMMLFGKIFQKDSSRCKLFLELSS

[4] = molecular target: T1, Trace amine-associated receptor 1; assay: Counterscreen for agonists of the human trace amine associated receptor 1 (hTAAR1): Fluorescence-based cell-based high throughput dose response assay to identify hTAAR1 agonist that also desensitize TAAR1 receptor response.; format: functional
Melanocortin receptor 4 = Melanocortin receptor 4 (Homo sapiens, UniProt P32245); assay: inhibitors of MC4R cAMP signaling – cell-based, TR-FRET, biased antagonists, dose response (AID 602298); format: functional;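 note: antagonist potency against agonist-stimulated cAMP production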
Sequence of Melanocortin receptor 4 (P32245 whole entry): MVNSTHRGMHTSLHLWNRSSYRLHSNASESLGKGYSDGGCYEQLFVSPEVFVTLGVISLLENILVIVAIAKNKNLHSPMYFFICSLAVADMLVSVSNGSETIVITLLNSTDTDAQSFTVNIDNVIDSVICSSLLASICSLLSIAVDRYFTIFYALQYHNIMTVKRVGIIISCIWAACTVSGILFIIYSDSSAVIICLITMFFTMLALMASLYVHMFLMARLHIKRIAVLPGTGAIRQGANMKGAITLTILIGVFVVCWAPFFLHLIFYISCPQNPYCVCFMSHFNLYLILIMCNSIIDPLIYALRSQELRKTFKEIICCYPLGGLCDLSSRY

[5] = cAMP pathway inhibition in counterscreen cell line – TR-FRET cAMP detection, counter-screen for MC4R biased antagonist project, dose response (AID 602305); format: functional, cell-based;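 note: U2OS cells stimulated with forskolin near its EC80 as the cAMP inducer; potency is for inhibition of forskolin-stimulated cAMP signaling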
Genome polyprotein = Genome polyprotein (dengue virus type 2, UniProt P29990); assay: flavivirus cap methylation enzyme inhibition – biochemical, confirmation dose response, primary screen (AID 588689); format: functional
Sequence of Genome polyprotein (P29990 2492-3391 limits assumed): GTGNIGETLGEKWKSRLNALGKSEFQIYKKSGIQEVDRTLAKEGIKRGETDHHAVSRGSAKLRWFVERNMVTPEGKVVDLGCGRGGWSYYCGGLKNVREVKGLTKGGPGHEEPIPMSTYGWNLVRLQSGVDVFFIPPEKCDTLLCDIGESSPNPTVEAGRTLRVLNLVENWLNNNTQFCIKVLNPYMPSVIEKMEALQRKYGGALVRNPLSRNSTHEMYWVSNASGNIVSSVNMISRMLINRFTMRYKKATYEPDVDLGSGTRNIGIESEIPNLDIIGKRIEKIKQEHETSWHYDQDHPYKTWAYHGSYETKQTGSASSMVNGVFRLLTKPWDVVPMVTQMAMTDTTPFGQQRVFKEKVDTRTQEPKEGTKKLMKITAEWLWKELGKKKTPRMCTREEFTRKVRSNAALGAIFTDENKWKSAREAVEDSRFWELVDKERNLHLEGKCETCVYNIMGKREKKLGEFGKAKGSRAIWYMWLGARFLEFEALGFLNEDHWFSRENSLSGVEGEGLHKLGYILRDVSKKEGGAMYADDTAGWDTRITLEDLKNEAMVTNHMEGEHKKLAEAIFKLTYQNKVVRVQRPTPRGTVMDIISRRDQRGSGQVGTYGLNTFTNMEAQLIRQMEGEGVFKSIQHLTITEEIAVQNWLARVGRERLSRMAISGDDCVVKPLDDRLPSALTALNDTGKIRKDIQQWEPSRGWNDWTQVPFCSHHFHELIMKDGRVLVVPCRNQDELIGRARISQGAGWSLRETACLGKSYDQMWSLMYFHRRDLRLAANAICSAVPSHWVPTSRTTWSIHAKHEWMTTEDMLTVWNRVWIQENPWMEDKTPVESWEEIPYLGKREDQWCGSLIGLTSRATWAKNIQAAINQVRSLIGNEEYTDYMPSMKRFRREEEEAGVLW

Streptococcus = assay: GAS UMAA2166 growth inhibition – luminescence, BacTiterGlo, counter-screen for streptokinase expression inhibitor project, dose response (AID 1915); format: functional, organism-based;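 note: potency for reduction of bacterial viability or growth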
[6] = test system: Streptococcus sp. 'group A'; assay: Streptococcus pyogenes SK(-)GAS viability under kanamycin – luminescence, BacTiterGlo, confirmation, counter-screen for streptokinase expression inhibitor project, dose response (AID 1900); format: functional, organism-based
Streptokinase A = molecular target: T2, Streptokinase A (Streptococcus pyogenes serotype M1, UniProt P10520); assay: viability-normalized secreted streptokinase activity reduction – plasminogen activation absorbance, OD405, dose response (AID 1914); format: functional, Streptococcus pyogenes M1 GAS;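 note: secreted streptokinase activity via plasminogen activation per viability signal from cell pellet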
T2 sequence (P10520 whole entry): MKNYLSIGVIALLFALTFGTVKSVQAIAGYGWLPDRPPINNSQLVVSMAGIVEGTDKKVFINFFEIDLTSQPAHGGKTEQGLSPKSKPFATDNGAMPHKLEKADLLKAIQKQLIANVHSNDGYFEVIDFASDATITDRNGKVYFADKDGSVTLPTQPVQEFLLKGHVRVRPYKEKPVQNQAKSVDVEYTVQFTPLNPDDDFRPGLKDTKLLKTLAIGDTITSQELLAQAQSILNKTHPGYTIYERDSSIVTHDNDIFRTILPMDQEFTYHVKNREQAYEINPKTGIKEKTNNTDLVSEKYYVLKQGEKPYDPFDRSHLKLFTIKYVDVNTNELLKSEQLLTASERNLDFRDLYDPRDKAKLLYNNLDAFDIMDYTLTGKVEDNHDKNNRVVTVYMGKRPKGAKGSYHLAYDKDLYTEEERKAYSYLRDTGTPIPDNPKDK

Vero = assay: viability of Vero cells under compound – cytotoxicity control for flavivirus capping enzyme inhibitors (AID 588742); format: functional; conditions: Chlorocebus sabaeus
[7] = molecular target: T3, Small ubiquitin-related modifier 1 (Homo sapiens, UniProt P63165); assay: SUMO1 protein-protein binding blockers, potency – biochemical, FRET, dose response (AID 624383); format: functional; conditions: read-out: IC50_Mean
T3 sequence (P63165 whole entry): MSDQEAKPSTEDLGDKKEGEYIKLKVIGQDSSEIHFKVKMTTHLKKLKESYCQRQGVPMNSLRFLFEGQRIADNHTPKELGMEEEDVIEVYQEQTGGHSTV

[8] = molecular target: Induced myeloid leukemia cell differentiation protein Mcl-1 (Homo sapiens, UniProt Q07820); format: functional
Sequence of Induced myeloid leukemia cell differentiation protein Mcl-1 (Q07820 whole entry): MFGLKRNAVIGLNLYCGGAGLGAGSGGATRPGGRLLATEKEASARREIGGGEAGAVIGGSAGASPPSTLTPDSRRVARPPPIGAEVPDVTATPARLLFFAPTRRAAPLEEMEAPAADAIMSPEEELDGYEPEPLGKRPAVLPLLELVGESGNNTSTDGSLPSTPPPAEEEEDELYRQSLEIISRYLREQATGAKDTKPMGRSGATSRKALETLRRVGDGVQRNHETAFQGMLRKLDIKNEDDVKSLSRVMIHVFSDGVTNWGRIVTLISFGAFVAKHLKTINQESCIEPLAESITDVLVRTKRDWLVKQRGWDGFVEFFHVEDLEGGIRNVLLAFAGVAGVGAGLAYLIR

Aminopeptidase N = molecular target: T4, Aminopeptidase N (Plasmodium falciparum FcB1/Columbia, UniProt O96935); assay: malaria alanyl aminopeptidase activity blockers – biochemical, fluorogenic H-Leu-NHMec substrate, 1536-well (AID 1445); set-up: species or system Plasmodium falciparum 3D7, 3D7
T4 sequence (O96935 whole entry): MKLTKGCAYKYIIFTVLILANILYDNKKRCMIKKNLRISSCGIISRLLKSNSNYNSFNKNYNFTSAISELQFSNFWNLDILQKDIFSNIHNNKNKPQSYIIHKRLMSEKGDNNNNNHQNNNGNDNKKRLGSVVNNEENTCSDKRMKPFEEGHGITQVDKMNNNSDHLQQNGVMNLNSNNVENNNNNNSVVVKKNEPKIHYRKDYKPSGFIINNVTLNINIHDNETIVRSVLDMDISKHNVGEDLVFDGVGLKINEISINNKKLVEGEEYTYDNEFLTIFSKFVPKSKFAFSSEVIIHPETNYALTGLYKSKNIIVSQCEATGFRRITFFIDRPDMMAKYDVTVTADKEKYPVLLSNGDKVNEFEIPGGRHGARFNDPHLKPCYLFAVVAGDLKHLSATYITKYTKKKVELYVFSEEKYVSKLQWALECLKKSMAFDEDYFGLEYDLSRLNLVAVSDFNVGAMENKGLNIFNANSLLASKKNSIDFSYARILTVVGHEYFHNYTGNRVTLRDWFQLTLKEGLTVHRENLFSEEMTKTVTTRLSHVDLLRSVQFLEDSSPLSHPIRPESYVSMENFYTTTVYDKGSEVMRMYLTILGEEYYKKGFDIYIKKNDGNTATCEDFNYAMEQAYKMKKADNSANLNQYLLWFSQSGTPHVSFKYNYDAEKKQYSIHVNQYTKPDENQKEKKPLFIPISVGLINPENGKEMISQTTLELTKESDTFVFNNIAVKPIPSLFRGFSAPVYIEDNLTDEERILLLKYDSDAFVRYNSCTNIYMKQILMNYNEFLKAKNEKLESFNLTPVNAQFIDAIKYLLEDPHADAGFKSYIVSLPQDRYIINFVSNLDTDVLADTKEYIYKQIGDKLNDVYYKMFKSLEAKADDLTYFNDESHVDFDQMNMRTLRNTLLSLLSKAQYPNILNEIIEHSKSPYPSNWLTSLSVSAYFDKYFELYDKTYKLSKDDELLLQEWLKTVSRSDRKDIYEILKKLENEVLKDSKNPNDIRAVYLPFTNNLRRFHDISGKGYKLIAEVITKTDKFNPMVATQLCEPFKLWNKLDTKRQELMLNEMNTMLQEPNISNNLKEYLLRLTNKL

[9] = molecular target: T3, Small ubiquitin-related modifier 1; assay: SUMO1 protein interaction blockers, potency – biochemical, fluorescence polarization, uHTS hits, dose response (AID 624382); format: functional; conditions: read-out: IC50_Mean
[10] = molecular target: Eukaryotic translation initiation factor 4E (Mus musculus, UniProt P63073); assay: blockers of eIF4G binding by eIF4E – biochemical, TR-FRET, dose response (AID 855); format: functional;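 note: potency for disrupting eIF4E binding to eIF4GI seen as loss of FRET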
Sequence of Eukaryotic translation initiation factor 4E (P63073 whole entry): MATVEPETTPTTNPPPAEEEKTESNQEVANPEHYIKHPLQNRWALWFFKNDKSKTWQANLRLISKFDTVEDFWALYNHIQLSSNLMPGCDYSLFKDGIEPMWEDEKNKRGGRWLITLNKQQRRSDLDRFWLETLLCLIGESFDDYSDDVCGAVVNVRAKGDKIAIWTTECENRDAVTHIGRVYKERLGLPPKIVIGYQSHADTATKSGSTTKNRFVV

SN12K1 = assay: cells; format: functional; conditions: Homo sapiens
P388 = assay: cells; format: functional; conditions: Mus musculus
P388/ADR = assay: cells; format: functional; conditions: Mus musculus

O=C(NC(c1cccnc1)C(F)(F)F)c1cc(COc2ccc3c(c2)CCCC3)on1 (stereo not drawn)
AC50 (INS1): 3.48 µM (active) | IC50 (Protein Wnt-3a): 40.4 µM (inactive)

Cc1ccnc(NC(=O)Nc2ccc3c(c2)OCO3)c1
IC50 (cells [1]): > 29.9 µM (inactive) | EC50 (cells [2]): > 29.9 µM (inactive) | EC50 [3]: > 29.9 µM (inactive) | IC50 [4]: > 29.9 µM (inactive)

C(#Cc1ccccc1)C[N+]1(CC#Cc2ccccc2)CCCC1
IC50 (Protein Wnt-3a): 8.34 µM (active)

O=C(Nc1nc2cc(Cl)ccc2s1)C1CCCN(S(=O)(=O)c2cccc3cccnc23)C1 (stereo not drawn)
IC50 (Melanocortin receptor 4): > 64.6 µM (inactive) | IC50 [5]: > 64.6 µM (inactive)

CCN(c1ccc(OCC(=O)OCC(=O)c2c(N)n(C)c(=O)n(C)c2=O)cc1)S(=O)(=O)c1ccccc1
IC50 (Melanocortin receptor 4): > 7.18 µM (active) | IC50 [5]: > 64.6 µM (inactive)

Cc1cccc(CCNCc2cc3cc(C)cc(C)c3nc2O)c1
IC50 (cells [1]): > 29.9 µM (inactive) | EC50 (cells [2]): > 29.9 µM (inactive) | EC50 [3]: 0.73 µM (active) | IC50 [4]: 1.84 µM (active)

c1ccc(COc2ccc(-c3cc4nc(NCCN5CCOCC5)ccn4n3)cc2)cc1
IC50 (Melanocortin receptor 4): 20 µM (inactive) | IC50 [5]: > 64.6 µM (inactive)

O=C(O)C1CCCCC1C(=O)NCCc1ccc(F)cc1 (stereo not drawn)
IC50 (cells [1]): > 29.9 µM (inactive) | EC50 (cells [2]): > 29.9 µM (inactive) | EC50 [3]: 1.39 µM (active) | IC50 [4]: 8.15 µM (active)

CCN1C(=O)/C(=C\c2ccc(-c3ccc([N+](=O)[O-])cc3OC)o2)S/C1=N\c1cccc(C(=O)O)c1
IC50 (Genome polyprotein): 64.5 µM (active) | EC50 (Streptococcus): 8.58 µM (active) | EC50 [6]: 3.17 µM (active) | EC50 (Streptokinase A): > 150 µM (not active) | CC50 (Vero): > 40 µM (active) | IC50 [7]: 25.8 µM (inactive) | IC50 [8]: 6.7 µM (active) | IC50 (Aminopeptidase N): 2.2 µM (active) | IC50 [9]: > 66.6 µM (inactive) | IC50 [10]: 50 µM (inactive)

ClCCCN1CCN(CCCl)CC1
GI50 (SN12K1): 109 µM (inactive) | GI50 (P388): 17.7 µM (inactive) | GI50 (P388/ADR): 27 µM (inactive)

C=C1C(=O)O[C@@H]2[C@H](O)[C@@H](C)[C@@H]3C=CC(=O)[C@@]3(C)[C@H](OC(=O)C=C(C)C)[C@H]12
GI50 (SN12K1): 0.681 µM (active) | GI50 (P388): 0.194 µM (active) | GI50 (P388/ADR): 0.141 µM (active)

Nc1nc(=O)c2c([nH]1)NCC(CNc1ccc(C(=O)N[C@@H](CCC(=O)O)C(=O)O)cc1)N2C=O (stereo partly drawn) [LEUCOVORIN CALCIUM]
GI50 (SN12K1): > 125 µM (inactive) | GI50 (P388): > 125 µM (inactive) | GI50 (P388/ADR): > 124 µM (inactive)

CCCCCCCCCCCCCCCCCCOP(=O)([O-])OCC[N+](C)(C)C [OCTADECYLPHOSPHONOCHOLINE]
GI50 (SN12K1): 13.7 µM (inactive) | GI50 (P388): 3.78 µM (inactive) | GI50 (P388/ADR): 11.1 µM (inactive)
